Read-outs that look alike come from different tables or passages of the source.
Tested on: MCF7/AdrR cells
Test: MTT viability assay of transfected drug resistant cells exposed to drug
Assay type: cell-based, human
Settings: for sensitivity of cells expressing WTH3 to drug: MCF7/AdrR cells transfected with pcDNA/WTH3; for IC50: Homo sapiens
Description: Reversion of MDR phenotype by overexpression of WTH3, RAB6 or RAB6C in MCF7/AdrR cells. WTH3, RAB6 and RAB6C cDNAs were inserted into pcDNA1.1/Amp expression vectors (Invitrogen Corp.) and transfected into drug resistant MCF7/AdrR cells (Lipofect Amine Plus™; Life Technologies, Inc., (GIBCO)). Expression of the exogenous WTH3 (pcDNA/WTH3), RAB6 (pcDNA/RAB6) or RAB6C (pcDNA/RAB6C) genes in transfected cells was confirmed by RT-PCR. Control cells were provided by transfection with pcDNA1.1/Amp which contained no insert. Cells were exposed to various concentrations of doxorubicin and viablity was determined after 72 hours by MTT assay. […] Cells expressing RAB6 or RAB6C cDNAs were tested for sensitivity to doxorubicin. […] The drug resistant control cells were 3.2 (P<0.0001) times more resistant to the antitumor drug than pcDNA/RAB6C containing cells and 2.2 (P<0.0001) times more resistant to the antitumor drug than pcDNA/RAB6 containing cells.

## CC[C@]1(O)C[C@H]2CN(CCc3c([nH]c4ccccc34)[C@@](C(=O)OC)(c3cc4c(cc3OC)N(C=O)[C@H]3[C@@](O)(C(=O)OC)[C@H](OC(C)=O)[C@]5(CC)C=CCN6CC[C@]43[C@@H]65)C2)C1 [vincristine]
  sensitivity of cells expressing WTH3 to drug: increased sensitivity

## COc1cccc2c1C(=O)c1c(O)c3c(c(O)c1C2=O)C[C@@](O)(C(=O)CO)C[C@@H]3O[C@H]1C[C@H](N)[C@H](O)[C@H](C)O1 [doxorubicin]
MCF7, 72 h, control cells transfected with pcDNA1.1/Amp (no insert), viability after 72 hours by MTT, read-out: Mean IC50± SD
  IC50: 4.93 ± 0.3 µM
MCF7, 72 h, pcDNA/RAB6C containing cells, viability after 72 hours by MTT, read-out: Mean IC50± SD
  IC50: 1.53 ± 0.13 µM
MCF7, 72 h, pcDNA/RAB6 containing cells, viability after 72 hours by MTT, read-out: Mean IC50± SD
  IC50: 2.23 ± 0.17 µM
MCF7, MCF7/AdrR cells carrying endogenously expressed RAB6C, read-out: IC50 for doxorubicin
  IC50: 1 to 2.5 µM
  sensitivity of cells expressing WTH3 to drug: increased sensitivity
Control vs pcDNA/RAB6C cells, P<0.0001
  resistance of control cells relative to pcDNA/RAB6C containing cells: 3.2 times
Control vs pcDNA/RAB6 cells, P<0.0001
  resistance of control cells relative to pcDNA/RAB6 containing cells: 2.2 times
Drug resistant cells transfected with a vector which expresses WTH3, RAB6C, or RAB6
  sensitivity to doxorubicin compared to cells transfected with a control vector: increased sensitivity

Reference: patent publication US6994991B1, “Identification of differentially methylated multiple drug resistance loci” (North Shore - Long Island Jewish Research Institute, priority 1998, dated 2006)
